{"source": "patent US8952025B2", "about": "“Multifunctional radical quenchers and their uses” (Arizona Board of Regents, A Body Corporate of the State of …, priority 2010, dated 2015)", "type_in_all_cases": "cell-based, human", "key": {"CEM cells": {"tested_on": "CEM cells", "test": "Trypan blue cell viability assay, DEM-treated cells", "settings": "for maintaining cell viability (trypan blue exclusion): overnight incubation, then 5 mM DEM, 3 h; for EC50: CEM cells, pre-treatment 2 h, diethylmaleate 3 h, trypan blue exclusion, read-out: EC50 (effective concentration that prevents 50% of cell death)", "procedure": "Cell viability determined by trypan blue exclusion assay: This technique was used to assess the cytoprotective effects of the invention compounds in cultured cells pharmacologically treated to induce cell death by GSH depletion. DEM was used to deplete cellular GSH and induce oxidative stress. The viability of DEM-treated CEM cells was determined by their ability to exclude the dye trypan blue. Viable cells exclude trypan blue; whereas, non-viable cells take up the dye and stain blue. Briefly, CEM cells were grown in RPMI 1640 medium (GIBCO, Grand island, N.Y., USA) supplemented with 10% fetal calf serum, 2 mM glutamine (HyClone, South Logan, Utah, USA), 1% penicillin-streptomycin mix (Cellgro, Manassan, Va., USA). Cells were seeded at a density of 1×10^6 cells/mL and treated with different concentrations of the invention compounds. Cells were incubated at 37° C. in a humidified atmosphere of 5% CO2 in air for three hours with 5 mM DEM. Cell viability was determined by staining cells with 0.4% trypan blue using a hemacytometer. At least 500 cells were counted for each experimental group. At the time of assay, >95% of DEM-treated cells were trypan blue positive; whereas, in non-DEM treated control cell cultures >95% cells were viable. Cell viability was expressed as the percentage of control. Data are expressed as means±S.E.M (n=3)."}, "FRDA fibroblasts": {"tested_on": "FRDA fibroblasts", "test": "Calcein-AM cell viability assay, BSO-treated FRDA fibroblasts", "settings": "for EC50: BSO-treated FRDA fibroblasts, calcein-AM fluorescence, read-out: EC50 (effective concentration that prevents 50% of cell death); for protection of FRDA fibroblasts from oxidative damage (cell viability): BSO-treated FRDA fibroblast", "procedure": "A cell viability assay using the dye calcein acetoxymethyl (AM) was used to determine the effects of invention compounds on GSH-mediated cell death in primary FRDA patient derived fibroblasts (Jauslin et al. (2002) Human Molecular Genetics. 11, 3055-3063) FRDA fibroblasts were treated with L-buthionine (S,R)-sulfoximine (BSO) to inhibit de novo synthesis of GSH (Griffith et al. (1979) J. Biol. Chem. 254, 7558-7560) causing oxidative stress, plasma membrane damage and cell death. Fibroblasts from Friedreich Ataxia patients, but not control cells, die after GSH depletion on incubation with BSO (Jauslin et al. (2002) Human Molecular Genetics. 11, 3055-3063). Cell viability was determined using calcein-AM (Molecular Probe, Eugene, Oreg.). In live cells, non-fluorescent calcein AM is hydrolyzed by intracellular esterases to produce the strongly green fluorescent anion calcein.\nCell culture and reagents: Primary fibroblasts were derived from a patient donor with a molecular diagnosis of FRDA and control donor with no mitochondrial disease. These cell lines were obtained from Coriell Cell Repositories (Camden, N.J., USA; catalog numbers GM04078 and GM08402, respectively). Fibroblasts were cultured in 64% (v/v) Eagle's Minimal Essential Medium (MEM), no phenol red with Eagle's balanced salt (EBS) and 25% M199 with EBS (GIBCO, Grand island, N.Y., USA) supplemented with 10% (v/v) Fetal Calf Serum (HyClone, South Logan, Utah, USA), 1% penicillin-streptomycin mix antibiotics (Cellgro, Manassan, Va., USA), 10 ng/mL insulin (Sigma, St. Louis, Mo., USA), 10 ng/mL basic fibroblast growth factor βFGF (Lonza, Walkersville, Md., USA) and 2 mM glutamine (HyClone, South Logan, Utah, USA). BSO (L-buthionine (S,R)-sulfoximine) and (+)-alpha-tocopherol were purchased from Sigma Chemicals and calcein AM was purchased from Molecular Probes. Cell were grown in 75 cm^2 culture flasks (T75) and incubated at 37° C. in a humidified atmosphere of 5% CO2 in air. Cells were fed twice a week and split every third day at a ratio of 1:3 upon reaching confluency. The invention compounds and reduced and oxidized forms of idebenone and alpha-tocopherol were reconstituted in DMSO or ethanol to provide 2.5 mM stock solutions.\nIntervention compounds were screened according to the previous protocol (Jauslin et al. (2002) Human Molecular Genetics. 11, 3055-3063): Fibroblasts were seeded in 96 well microtiter black-walled cell culture plates (Costar, Corning, N.Y., USA) at a density of 3000 cells per well (100 μL). The plates were incubated overnight at 37° C. in a humidified atmosphere of 5% CO2 in air to allow attachment of the cells to the culture plate. Serial dilutions of intervention and references compounds were made from their respective stock solutions to give a total volume of 150 μL in each well. Plates were incubated overnight in cell culture. The following day, 50 μL of a 4 mM BSO solution (in culture media) was added to each well to provide a final BSO concentration of 1 mM. Cell viability was assessed after first signs of toxicity appeared in BSO-treated cells (typically after 24-30 hours) by examining cultures under phase-contrast microscopy. The cell culture medium was discarded by aspiration and each well of the cell culture plate washed with pre-warmed HSSB to remove serum esterase activity. Cells were then treated in with 200 μL of 1.2 μM calcein-AM in HSSB for 60 min at 37° C. in the dark to allow the dye to enter the cell and be cleaved by esterases. The negative control/background was 200 μL of HSSB buffer. Fluorescence intensities were measured with a Spectramax M5 spectrofluorometer (Molecular Devices, Sunnyvale, Calif., USA) using excitation and emission of 485 nm and 525 nm respectively. The intervention compounds were assayed in triplicate. […] The viability of non-BSO treated fibroblasts was set as 100%, and the viability of the BSO-treated and sample-treated cells was calculated relative to this value. […]"}, "CEM leukemia cells": {"tested_on": "CEM leukemia cells", "test": "Mitochondrial membrane potential (Δψm) assay, TMRM, FACS", "settings": "for preserving mitochondrial membrane potential Δψm: 1, 2.5 or 5 μM", "procedure": "Measurement of Mitochondrial Membrane Potential (Δψm)(FACS). For the determination of Δψm, CEM leukemia cells were pre-treated with or without the test compounds. The cells were treated with 5 mM DEM for 120 minutes, collected by centrifugation at 300×g for 3 minutes and then washed twice with phosphate buffered saline. The cells were re-suspended in HSSB buffer and incubated at 37° C. in the dark for 15 minutes with 250 nM TMRM (a cationic dye which accumulates within mitochondria in accordance with the Δψm Nernst potential). Cells were collected by centrifugation at 300×g for 3 minutes and then washed twice with phosphate buffered saline. The samples were analyzed immediately by flow cytometry using 488 nm excitation laser and the FL2-H channel. The results obtained were verified in three independent experiments. The protonophore FCCP (30 μM) was used to dissipate the chemiosmotic proton gradient (ΔμH^+) and served as a control for loss of Δψm. In each analysis, 10,000 events were recorded."}, "[1]": {"settings": "pretreatment 0.5, 1 or 2.5 μM overnight, DEM"}}, "note": "“Also recorded” adds a separate entry of the source. Read-outs that look alike come from different tables or passages of the source."}
{"compound": "Cc1c(C)c2c(c(C)c1O)CC[C@@](C)(CCC[C@H](C)CCC[C@H](C)CCCC(C)C)O2", "note": "[α-tocopherol, reference compound]", "values": [{"measurement": "maintaining cell viability (trypan blue exclusion)", "setting": "CEM cells", "result": "effective in maintaining cell viability following treatment with DEM"}, {"measurement": "EC50", "setting": "FRDA fibroblasts", "result": "1030 ± 116", "unit": "nM"}]}
{"compound": "Cc1nc(N(C)C)nc(CCCCCCCCCCO)c1O", "note": "[Compound A, 2-N,N-dimethylamino-5-hydroxy-4-methyl-6-(10-hydroxydecyl)-pyrimidine]", "values": [{"measurement": "EC50", "setting": "CEM cells", "result": "202 ± 23", "unit": "nM"}, {"measurement": "EC50", "setting": "CEM cells; Homo sapiens, CCRF-CEM", "result": "203 ± 23", "unit": "nM"}, {"measurement": "maintaining cell viability (trypan blue exclusion)", "setting": "CEM cells", "result": "quite effective in maintaining cell viability following DEM treatment; also recorded: superior to idebenone in maintaining the viability of DEM-treated cells"}, {"measurement": "protection of FRDA fibroblasts from oxidative damage (cell viability)", "setting": "FRDA fibroblasts", "result": "more effective than idebenone"}, {"measurement": "EC50", "setting": "FRDA fibroblasts; Homo sapiens, Fibroblast", "result": "390 ± 28", "unit": "nM"}, {"measurement": "maintaining mitochondrial membrane potential Δψm", "setting": "CEM leukemia cells; [1]", "result": "clearly more effective in maintaining mitochondrial membrane potential; also recorded: very favorable properties"}]}
{"compound": "Cc1nc2c(c(CC[C@](C)(O)CCC[C@H](C)CCC[C@H](C)CCCC(C)C)c1O)CCN2C", "note": "[Compound C, 4-((3R,7R,11R)-3-hydroxy-3,7,11,15-tetramethylhexadecyl)-1,6-dimethyl-2,3-dihydro-1H-pyrrolo[2,3-b]pyridine-5-ol]", "values": [{"measurement": "maintaining cell viability (trypan blue exclusion)", "setting": "CEM cells", "result": "both effective in maintaining cell viability following treatment with DEM, with compound C being somewhat more effective; also recorded: superiority of compound C"}, {"measurement": "protection of FRDA fibroblasts from oxidative damage (cell viability)", "setting": "FRDA fibroblasts", "result": "slightly more effective than α-tocopherol"}, {"measurement": "EC50", "setting": "FRDA fibroblasts; Homo sapiens, Fibroblast", "result": "833 ± 75", "unit": "nM"}, {"measurement": "preserving mitochondrial membrane potential Δψm", "setting": "CEM leukemia cells; 4-hour pretreatment", "result": "more effective than tocopherol in preserving mitochondrial membrane potential"}, {"measurement": "preserving mitochondrial membrane potential Δψm", "setting": "CEM leukemia cells; 24-hour pretreatment", "result": "comparable to tocopherol"}, {"measurement": "maintaining mitochondrial membrane potential Δψm", "setting": "CEM leukemia cells; FIG. 13, 4 or 24 hours pretreatment", "result": "superior to tocopherol in maintaining mitochondrial membrane potential"}]}
{"compound": "COC1=C(OC)C(=O)C(CCCCCCCCCCO)=C(C)C1=O", "note": "[idebenone, reference compound]", "values": [{"measurement": "EC50", "setting": "CEM cells; Homo sapiens, CCRF-CEM", "result": "765 ± 36", "unit": "nM"}, {"measurement": "EC50", "setting": "FRDA fibroblasts; Homo sapiens, Fibroblast", "result": "710 ± 80", "unit": "nM"}, {"measurement": "maintaining mitochondrial membrane potential Δψm", "setting": "CEM leukemia cells; [1]", "result": "less effective in this regard"}]}
